Consider five molecules from article PMC3377626, “Role of mprF1 and mprF2 in the Pathogenicity of Enterococcus faecalis” (PLoS ONE, 2012).

Values after ≈ are worked out from the molar mass of the structure shown. No end group written: not given here.

One assay has as its system E. faecalis 12030 ΔmprF2. Put plainly: MIC by serial dilution (modified NCCLS method). The assay is classed as cell-based, Enterococcus faecalis. The settings on record: for Minimal inhibotory concentration: mprF2 (EF_1027) deletion mutant, serial dilution in TSB broth, 96-well plates, approx. 1×10^6 CFU/ml, overnight at 37°C, lowest concentration at which visible growth was inhibited; for fold decreased MIC of 12030ΔmprF2 compared to the wild-type strain: ratio of MIC of wild type E. faecalis 12030 to MIC of 12030ΔmprF2, from Table 1. As to the method:
(§1) The minimal inhibitory concentration (MIC) of polymyxin B, nisin, HBD-3, and colistin was determined in serial dilution with a modified NCCLS method. Experiments were performed in TSB broth in 96-well microtiter tissue culture plates (Greiner). Wells were inoculated with 50-µl volumes of a suspension containing approximately 1×10^6 CFU/ml of the test organism, and concentrations were confirmed by enumeration of CFUs after serial dilution. Microtiter plates were incubated overnight at 37°C, and the MICs were defined as the lowest concentration at which visible growth was inhibited. The MIC against daptomycin was determined by E-test according to standard laboratory procedures.

The test system of assay [1] is E. faecalis 12030. Put plainly: MIC by serial dilution (modified NCCLS method). The conditions noted are these: wild type strain; serial dilution in TSB broth, 96-well plates, approx. 1×10^6 CFU/ml, overnight at 37°C; lowest concentration at which visible growth was inhibited. The assay is classed as cell-based, Enterococcus faecalis. How it is done: as §1
Assay [2] concerns 12030ΔmprF2 CM (knock-in). Nature of the assay: MIC by E-test. In kind it is cell-based, Enterococcus faecalis. The settings on record: mprF2 mutant complemented by knock-in. How it is done:
as §1

A further assay relates to 12030ΔmprF2. Put plainly: MIC by E-test. The assay is classed as cell-based, Enterococcus faecalis. The conditions noted are these: mprF2 deletion mutant. As to the method: as §1
In assay [3] the test system is E. faecalis 12030. Nature of the assay: MIC by E-test. The conditions noted are these: wild-type strain. In kind it is cell-based, Enterococcus faecalis. As to the method:
as §1

For another assay, the system named is 12030ΔmprF1. Put plainly: MIC by E-test. The assay is classed as cell-based, Enterococcus faecalis. The conditions noted are these: mprF1 deletion mutant. As to the method: as §1
A further assay concerns S. aureus. The conditions noted are these: S. aureus MprF mutant versus wild type; cited from earlier work. From the text:
In contrast to S. aureus, however, there was no effect on ...

Assay [4] deals with E. faecalis 12030 ΔmprF2 CM. Put plainly: MIC by serial dilution (modified NCCLS method). The assay is classed as cell-based, Enterococcus faecalis. The settings on record: mprF2 mutant complemented by knock-in of mprF2; serial dilution in TSB broth, 96-well plates, approx. 1×10^6 CFU/ml, overnight at 37°C; lowest concentration at which visible growth was inhibited. As to the method:
as §1

Another assay concerns E. faecalis 12030 ΔmprF1. Nature of the assay: MIC by serial dilution (modified NCCLS method). In kind it is cell-based, Enterococcus faecalis. The settings on record: mprF1 (EF_0031) deletion mutant; serial dilution in TSB broth, 96-well plates, approx. 1×10^6 CFU/ml, overnight at 37°C; lowest concentration at which visible growth was inhibited. How it is done:
as §1

For the molecule polymyxin B, in the assay on E. faecalis 12030 ΔmprF2, the Minimal inhibotory concentration stood at 256 µg/mL and the “fold decreased MIC of 12030ΔmprF2 compared to the wild-type strain” value (shortened to “fold decreased MIC of 12030ΔmprF2”) was determined as 4 fold. Also, the Minimal inhibotory concentration in the assay with E. faecalis 12030 [1] was determined as 1024 µg/mL.
Consider `CCCCCCCCCC(=O)N[C@@H](Cc1c[nH]c2ccccc12)C(=O)N[C@H](CC(N)=O)C(=O)N[C@@H](CC(=O)O)C(=O)N[C@@H]1C(=O)NCC(=O)N[C@@H](CCCN)C(=O)N[C@@H](CC(=O)O)C(=O)N[C@H](C)C(=O)N[C@@H](CC(=O)O)C(=O)NCC(=O)N[C@H](CO)C(=O)N[C@@H]([C@H](C)CC(=O)O)C(=O)N[C@@H](CC(=O)c2ccccc2N)C(=O)O[C@@H]1C` [daptomycin], for which the MIC (usually the smallest concentration in the dilution series that meets the test's criterion for growth inhibition) in assay [2] was determined as 0.25 µg/mL (≈ 0.154 µM); with 12030ΔmprF2 it was 0.25 µg/mL (≈ 0.154 µM); against E. faecalis 12030 [3] it was 0.19 µg/mL (≈ 0.117 µM); in the assay with 12030ΔmprF1 it was 0.25 µg/mL (≈ 0.154 µM).
colistin: in the assay on E. faecalis 12030 ΔmprF2, the Minimal inhibotory concentration came to 2048 µg/mL and the “fold decreased MIC of 12030ΔmprF2” value is 2 fold. The molecule also registered a Minimal inhibotory concentration with E. faecalis 12030 [1] of 4096 µg/mL.
With “nisin (ITSISLCTPGCKTGALMGCNMKTATCHCSIHVSK; cysteine pairing not given here; also: lantibiotic nisin-A, lanthionine/dehydro residues not placed; UniProt P13068 24-57, looked up) [cationic antimicrobial peptide (CAMP)]”, the “fold drop of the MIC on mutation of MprF in S. aureus” value in the assay on S. aureus is 28 fold. The Minimal inhibotory concentration was found to be 4 µg/mL in [4], 4 µg/mL in the assay on E. faecalis 12030 ΔmprF1, 1 µg/mL with E. faecalis 12030 ΔmprF2 and 4 µg/mL in the assay on E. faecalis 12030 [1]. Also, in the assay with E. faecalis 12030 ΔmprF2, the “fold decreased MIC of 12030ΔmprF2” value is listed as 4 fold.
Take “HBD-3: cationic antimicrobial peptide (CAMP) (GIINTLQKYYCRVRGGRCAVLSCLPKEEQIGKCSTRGRKCCRRKK; ends and bridges not checked; cysteine pairing not given here; UniProt P81534 23-67, looked up)”: in the assay on E. faecalis 12030 ΔmprF2, the Minimal inhibotory concentration worked out at 128 µg/mL and the “fold decreased MIC of 12030ΔmprF2” value was > 4 fold. Also, the Minimal inhibotory concentration with E. faecalis 12030 [1] was >512 µg/mL.
